Experimental data: ChEMBL document CHEMBL3507680, “University of Dundee, Gates Library screen for HepG2 cell viability”

Test: Human HepG2 cell viability assay in 384 well format
Format: toxicity, cell-based
Design: dose 125 nL, time 70.5 hour; cytotoxicity at 70.5 h: concentration not given beside the values
Conditions: HepG2 cells, read-out: Inhibition

SMILES | cytotoxicity at 70.5 h [%]
COc1cccc2c1OCC(NCc1cnn(-c3ccccc3)c1)C2 (stereo not given) | 14.4
COc1ccccc1OC1(C(=O)O)CCN(c2nccnc2OC)CC1 | 23.1
C=C(C)COc1cccc(C(=O)N2CCC3(CC2)CN(C)CCN3C)c1 | -7.19
COc1cccc(-c2cccc(N3CCC(N[C@@H]4CCOC4)CC3)c2)c1 | 2.44
CCc1noc(CN(C)Cc2cc3ccc(Cl)cc3[nH]c2=O)n1 | -5.21
Cc1nc2ccccc2nc1NCc1nnc2n1CCC2 | 0.938
CCOC(=O)CNC(=O)N1CCc2onc(-c3ccc(Cl)cc3)c2C1 | -16.3
Cc1cc(NCCNS(C)(=O)=O)nc2cc3c(cc12)CCC3 | -5.01
Cc1ccc(C(=O)N2CC(C)(C)[C@@](C)(O)C2)cc1N1CCNC1=O | 0.84
Cc1cc(C)c2nc(CN3CCC(CN)CC3)cc(O)c2c1 | 2.77
O=C(N[C@@H]1CCNC[C@H]1O)c1ccc(O)c(Cl)c1 | -8.26
Cc1ccc(C)c(-n2cc(CN3CCOCC3)c(-c3ccccc3)n2)c1 | -3.83
CCOc1ccc(C(=O)N2Cc3cnc(CC(C)C)nc3C2)o1 | -4.06
CCN1CCC(CC(=O)N(C)C(C)c2cncs2)CC1 (stereo not given) | -1.72
CC(C)N1CCC(c2nnc(CN3CCCC3)n2C2CC2)CC1 | -4.86
CCOCc1nc2c(c(N3CCN4CCCC4C3)n1)CCNCC2 (stereo not given) | -13.6
CN1CCCC2(CCN(S(=O)(=O)c3c(Cl)nc4sccn34)C2)C1=O (stereo not given) | -5.17
Cn1cccc1C(=O)N1CCC(c2nnc(Cn3ccnc3)n2C)CC1 | -5.24
C[C@@H]1CN(CC(C)(C)N2CCOCC2)CC[C@@]1(O)C1CCOCC1 | 7.82
CCC(C(=O)NC1CCCCC1)n1cccc(OC)c1=O (stereo not given) | -1.81
Cn1cc(C(=O)N2CCCC(C(=O)CCc3ccccc3)C2)cn1 (stereo not given) | -23.4
COc1ccc(OCc2nc(C(=O)N3CCCNC(=O)C3)co2)cc1 | -2.16
Cc1nc(NCCSc2ccccn2)c2c(C)noc2n1 | -4.96
CN(C)C(=O)c1ccc(N2CCC3(CCC(=O)N(CCO)C3)CC2)nc1 | -2.34
COc1ccc2c(C)c(C(=O)NC3CCOCC3)oc2c1 | -0.242
Cc1[nH]ccc1C(=O)N1C[C@H]2CC[C@@H]1CN(S(=O)(=O)N(C)C)C2 | -6.98
Cc1nn(C)cc1-c1ccnc(N(C)Cc2ccon2)n1 | -5.47
CC(C)=CCN1C[C@H]2CC[C@@H]1CN(Cc1coc(C)n1)C2 | -5.37

SMILES | cytotoxicity at 70.5 h [%]
COc1cccc(CC2(C(=O)O)CCN(c3nccs3)CC2)c1 | -7.32
COc1cc(N2CCCC(CO)(Cc3ccccc3F)C2)ncn1 (stereo not given) | 50.5
CCN1CCC2(CCC1=O)CN(C1CCOCC1)CCN2C (stereo not given) | -6.68
CCCN1C[C@H]2CC[C@@H]1CN(C(=O)c1ccc(N(C)CCO)cc1)C2 | 1.16
COc1ncccc1-c1nc(-c2ccccn2)nn1C1CCN(C)CC1 | -6.87
c1ncn(Cc2nnc(C3CCN(C4CCOCC4)CC3)n2C2CC2)n1 | -7.09
COc1cc(C(=O)N2CCC(O)(CN3CCOCC3)C(C)(C)C2)ccn1 (stereo not given) | -0.646
O=C(CC(F)(F)F)N1C[C@@H]2CC[C@H](C1)N(Cc1ccccc1)C2=O | -9.7
O=C1CN(Cc2cn(CC3CCCN(C4CCSCC4)C3)nn2)CCN1 (stereo not given) | 16.1
Cc1cc(CC(=O)N2CCN(CC(C)C)[C@@H]3CS(=O)(=O)C[C@@H]32)ccc1F | 7.77
CCO[C@H]1C[C@@H](O)C12CCN(C(=O)CCN1CCCC1=O)CC2 | -9.62
C=Cc1ccc(C(=O)N2CCCC(Nc3ccc(F)c(F)c3)C2)cc1 (stereo not given) | 26
O=C1N(Cc2cccc(F)c2F)CCCC1(O)CNCC1CCCCC1 (stereo not given) | 0.845
Cc1c(CNC(=O)c2cn(CCC3CCCCN3)nn2)cnn1C (stereo not given) | -1.47
O=C(O)C1c2nc[nH]c2CCN1Cc1ccccc1-c1ccccc1 (stereo not given) | -3.54
O=C(NCCc1ccc2c(c1)OCO2)C1CCCN(Cc2ccco2)C1 (stereo not given) | 1.41
CCC(NS(=O)(=O)c1ccc(C(=O)NC2CC2)cc1)c1cnn(C)c1 (stereo not given) | -8.25
CCc1nc(CNc2cc(C)nc(-c3cccnc3)n2)cs1 | 24.1
Cc1ccc(F)cc1-c1ccc(N)nc1 | 15.8
Cc1cnn(C(C)C(=O)NCC2CCN(c3cnn(C)c(=O)c3)CC2)c1 (stereo not given) | -5.13
Cc1cc(C(=O)N2C[C@H](c3ccccc3)[C@@H](N)C2)c2ccc(F)cc2n1 | -12.1
N#Cc1cccc(C(=O)N2CCCC(O)(CO)CC2)c1 (stereo not given) | -4.07
CCc1cc(-c2cc[nH]n2)nc(N2CCOCC2)n1 | 15.6
CCCc1cc(CN(C)C2CCSCC2)n[nH]1 | 0.588
Cc1cccc(C(C(=O)NCc2nc(-c3ncccn3)no2)N(C)C)c1 (stereo not given) | -2.35
c1ccc(-c2cc(CN3CCCCCC3c3ccco3)on2)nc1 (stereo not given) | -4.66
C[C@@H](N)C(=O)N1CCC(c2[nH]ncc2-c2ccccc2)CC1 | -8.76
